{"source": "patent US20160270428A1", "about": "(priority 2015, published 2016)", "data": [{"system": "Bacillus amyloliquefaciens LN", "type": "cell-based", "units": {"Zone diameter of LN": "mm"}, "values": [{"compound": "NCC[C@H](O)C(=O)N[C@@H]1C[C@H](N)[C@@H](O[C@H]2O[C@H](CN)[C@@H](O)[C@H](O)[C@H]2O)[C@H](O)[C@H]1O[C@H]1O[C@H](CO)[C@@H](O)[C@H](N)[C@H]1O", "note": "[Amikacin]", "Zone diameter of LN": "23.0 ± 0.8"}, {"compound": "CC1(C)S[C@@H]2[C@H](NC(=O)[C@H](N)c3ccccc3)C(=O)N2[C@H]1C(=O)O", "note": "[Ampicillin]", "Zone diameter of LN": "16.2 ± 1.0", "sensitivity of LN strain to the antibiotic according to CLSI": "no antibiotics sensitivity and resistance"}, {"compound": "Cn1nnnc1SCC1=C(C(=O)O)N2C(=O)[C@@H](NC(=O)[C@H](O)c3ccccc3)[C@H]2SC1", "note": "[Cefamandol]", "Zone diameter of LN": "38.2 ± 7.1"}, {"compound": "CO[C@@]1(NC(=O)Cc2cccs2)C(=O)N2C(C(=O)O)=C(COC(N)=O)CS[C@@H]21", "note": "[Cefoxitin]", "Zone diameter of LN": "27.6 ± 1.5"}, {"compound": "CC(=O)OCC1=C(C(=O)O)N2C(=O)[C@@H](NC(=O)Cc3cccs3)[C@H]2SC1", "note": "[Cephalothin]", "Zone diameter of LN": "36.8 ± 1.7"}, {"compound": "O=C(N[C@H](CO)[C@H](O)c1ccc([N+](=O)[O-])cc1)C(Cl)Cl", "note": "[Chloramphenicol]", "Zone diameter of LN": "30.7 ± 5.9"}, {"compound": "CC[C@H]1OC(=O)[C@H](C)[C@@H](O[C@H]2C[C@@](C)(OC)[C@@H](O)[C@H](C)O2)[C@H](C)[C@@H](O[C@@H]2O[C@H](C)C[C@H](N(C)C)[C@H]2O)[C@](C)(O)C[C@@H](C)C(=O)[C@H](C)[C@@H](O)[C@]1(C)O", "note": "[Erythromycin]", "Zone diameter of LN": "24.5 ± 1.5"}, {"compound": "C[C@@H](O)[C@H]1C(=O)N2C(C(=O)O)=C(SCCN=CN)C[C@H]12", "note": "[Imipeneem]", "Zone diameter of LN": "29.5 ± 0.2"}, {"compound": "NC[C@H]1O[C@H](O[C@H]2[C@H](O)[C@@H](O[C@H]3O[C@H](CO)[C@@H](O)[C@H](N)[C@H]3O)[C@H](N)C[C@@H]2N)[C@H](O)[C@@H](O)[C@@H]1O", "note": "[Kanamycin]", "Zone diameter of LN": "34.0 ± 0.4"}, {"compound": "O=C1CN(/N=C/c2ccc([N+](=O)[O-])o2)C(=O)N1", "note": "[Nitrofurantoin]", "Zone diameter of LN": "17.3 ± 0.6"}, {"compound": "CCn1cc(C(=O)O)c(=O)c2cc(F)c(N3CCNCC3)cc21", "note": "[Norfloxacin]", "Zone diameter of LN": "24.7 ± 0.8"}, {"compound": "Cc1onc(-c2ccccc2)c1C(=O)N[C@@H]1C(=O)N2[C@@H]1SC(C)(C)[C@@H]2C(=O)O", "note": "[Oxacillin]", "Zone diameter of LN": "14.3 ± 0.6"}, {"compound": "[H]/N=C(/N)N[C@H]1[C@H](O)[C@@H](O)[C@H](O[C@@H]2O[C@@H](C)[C@](O)(C=O)[C@H]2O[C@@H]2O[C@@H](CO)[C@H](O)[C@@H](O)[C@@H]2NC)[C@@H](N/C(N)=N\\[H])[C@@H]1O", "note": "[Streptomycin]", "Zone diameter of LN": "14.3 ± 0.5", "sensitivity of LN strain to the antibiotic according to CLSI": "no antibiotics sensitivity and resistance"}, {"compound": "CN(C)[C@@H]1C(O)=C(C(N)=O)C(=O)[C@@]2(O)C(O)=C3C(=O)c4c(O)cccc4[C@@](C)(O)[C@H]3C[C@@H]12", "note": "[Tetracycline]", "Zone diameter of LN": "15.3 ± 1.1"}, {"compound": "NC[C@H]1O[C@H](O[C@H]2[C@H](O)[C@@H](O[C@H]3O[C@H](CO)[C@@H](O)[C@H](N)[C@H]3O)[C@H](N)C[C@@H]2N)[C@H](N)C[C@@H]1O", "note": "[Tobramycin]", "Zone diameter of LN": "22.4 ± 1.8"}, {"compound": "CN[C@H](CC(C)C)C(=O)N[C@H]1C(=O)N[C@@H](CC(N)=O)C(=O)N[C@H]2C(=O)N[C@H]3C(=O)N[C@H](C(=O)N[C@H](C(=O)O)c4cc(O)cc(O)c4-c4cc3ccc4O)[C@H](O)c3ccc(c(Cl)c3)Oc3cc2cc(c3O[C@@H]2O[C@H](CO)[C@@H](O)[C@H](O)[C@H]2O[C@H]2C[C@](C)(N)[C@H](O)[C@H](C)O2)Oc2ccc(cc2Cl)[C@H]1O", "note": "[Vancomycin]", "Zone diameter of LN": "19.0 ± 0.8"}, {"compound": "Cefoxime", "Zone diameter of LN": "28.7 ± 7.0"}, {"compound": "Gentamicin", "Zone diameter of LN": "35.0 ± 9.6"}, {"compound": "Neomycin", "Zone diameter of LN": "20.9 ± 2.3"}]}]}
